The source of these data is ChEMBL document CHEMBL5465560, “Selectivity Literature for EUbOPEN Chemogenomic Library” (2024).

In experiment [1] the target is Dual specificity testis-specific protein kinase 2 (Homo sapiens) (UniProt Q96S53). In words: Selectivity interaction (LanthaScreen Eu Kinase Binding Assay) EUB0001632a TESK2. Conditions: at 10 µM. (TR-FRET usually uses a lanthanide donor and a delayed reading to cut background.)
The target in experiment [2] is Homeodomain-interacting protein kinase 1 (Homo sapiens, UniProt Q86Z02). In words: Selectivity interaction (KinomeScan (DiscoverX)) EUB0000595a HIPK1. Conditions: at 10 µM.
Chain of Homeodomain-interacting protein kinase 1 (Q86Z02 whole entry, looked up): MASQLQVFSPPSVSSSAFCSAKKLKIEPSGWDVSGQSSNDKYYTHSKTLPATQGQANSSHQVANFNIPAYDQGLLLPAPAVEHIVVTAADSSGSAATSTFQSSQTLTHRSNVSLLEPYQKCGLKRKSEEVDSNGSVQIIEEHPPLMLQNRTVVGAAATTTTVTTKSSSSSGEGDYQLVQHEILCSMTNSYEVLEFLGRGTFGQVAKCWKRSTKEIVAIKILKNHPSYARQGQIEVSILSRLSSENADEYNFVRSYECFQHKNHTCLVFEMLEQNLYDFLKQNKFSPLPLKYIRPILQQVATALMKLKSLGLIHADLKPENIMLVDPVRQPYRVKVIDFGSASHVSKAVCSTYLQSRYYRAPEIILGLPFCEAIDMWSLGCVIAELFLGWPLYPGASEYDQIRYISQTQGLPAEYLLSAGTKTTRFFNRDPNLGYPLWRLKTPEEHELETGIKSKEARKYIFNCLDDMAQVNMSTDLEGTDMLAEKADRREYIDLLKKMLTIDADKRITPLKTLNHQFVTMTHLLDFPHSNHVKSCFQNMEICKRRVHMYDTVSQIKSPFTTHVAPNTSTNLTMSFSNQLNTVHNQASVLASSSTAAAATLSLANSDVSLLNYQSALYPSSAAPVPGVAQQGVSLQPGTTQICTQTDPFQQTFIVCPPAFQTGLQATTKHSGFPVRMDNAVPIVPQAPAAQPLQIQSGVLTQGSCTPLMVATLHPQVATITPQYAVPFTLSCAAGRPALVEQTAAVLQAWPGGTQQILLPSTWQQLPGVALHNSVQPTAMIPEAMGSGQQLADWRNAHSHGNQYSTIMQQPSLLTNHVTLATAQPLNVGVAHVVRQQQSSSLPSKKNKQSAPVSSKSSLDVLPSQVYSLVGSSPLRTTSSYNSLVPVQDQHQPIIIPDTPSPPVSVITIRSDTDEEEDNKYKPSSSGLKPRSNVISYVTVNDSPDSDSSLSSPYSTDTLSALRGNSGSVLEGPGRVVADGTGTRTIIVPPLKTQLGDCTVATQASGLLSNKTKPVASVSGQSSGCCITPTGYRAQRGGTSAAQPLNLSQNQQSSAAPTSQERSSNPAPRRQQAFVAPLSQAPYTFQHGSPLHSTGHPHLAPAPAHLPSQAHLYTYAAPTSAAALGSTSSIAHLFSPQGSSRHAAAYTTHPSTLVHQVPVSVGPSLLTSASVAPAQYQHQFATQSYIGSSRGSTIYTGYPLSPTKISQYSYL
Experiment [3] has as its target T1, Bone morphogenetic protein receptor type-2 (Homo sapiens) (UniProt Q13873).
T1 sequence (whole entry): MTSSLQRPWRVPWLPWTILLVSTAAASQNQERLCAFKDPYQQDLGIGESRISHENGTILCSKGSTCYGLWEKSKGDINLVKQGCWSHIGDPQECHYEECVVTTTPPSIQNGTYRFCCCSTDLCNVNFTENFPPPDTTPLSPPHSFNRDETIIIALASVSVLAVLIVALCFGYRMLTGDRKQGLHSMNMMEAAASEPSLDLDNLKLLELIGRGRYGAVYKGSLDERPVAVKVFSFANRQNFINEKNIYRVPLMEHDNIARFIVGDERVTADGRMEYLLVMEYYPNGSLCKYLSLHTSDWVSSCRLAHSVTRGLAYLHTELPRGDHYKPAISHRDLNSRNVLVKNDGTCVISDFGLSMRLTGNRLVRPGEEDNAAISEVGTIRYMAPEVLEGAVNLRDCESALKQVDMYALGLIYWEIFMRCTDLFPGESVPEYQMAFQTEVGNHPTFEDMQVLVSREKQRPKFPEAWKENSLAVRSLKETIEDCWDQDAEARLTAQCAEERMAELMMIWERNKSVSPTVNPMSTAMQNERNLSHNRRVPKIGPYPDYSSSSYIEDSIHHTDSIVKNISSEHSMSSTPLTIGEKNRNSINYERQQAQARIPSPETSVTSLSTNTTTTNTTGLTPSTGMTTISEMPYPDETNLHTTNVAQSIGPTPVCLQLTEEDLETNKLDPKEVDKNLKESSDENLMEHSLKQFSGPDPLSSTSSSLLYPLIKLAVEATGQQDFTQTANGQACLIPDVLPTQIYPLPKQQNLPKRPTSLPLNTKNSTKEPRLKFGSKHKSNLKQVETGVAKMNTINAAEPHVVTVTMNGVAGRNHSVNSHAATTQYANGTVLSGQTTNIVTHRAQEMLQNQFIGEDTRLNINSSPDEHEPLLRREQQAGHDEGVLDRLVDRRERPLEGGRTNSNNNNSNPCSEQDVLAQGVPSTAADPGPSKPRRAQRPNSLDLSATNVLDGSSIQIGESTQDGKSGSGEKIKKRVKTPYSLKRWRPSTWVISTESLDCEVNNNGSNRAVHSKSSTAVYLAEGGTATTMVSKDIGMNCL
Conditions: at 10 µM.

The target in experiment [4] is T2, Tyrosine-protein kinase Tec (Homo sapiens) (UniProt P42680).
T2 sequence (whole entry): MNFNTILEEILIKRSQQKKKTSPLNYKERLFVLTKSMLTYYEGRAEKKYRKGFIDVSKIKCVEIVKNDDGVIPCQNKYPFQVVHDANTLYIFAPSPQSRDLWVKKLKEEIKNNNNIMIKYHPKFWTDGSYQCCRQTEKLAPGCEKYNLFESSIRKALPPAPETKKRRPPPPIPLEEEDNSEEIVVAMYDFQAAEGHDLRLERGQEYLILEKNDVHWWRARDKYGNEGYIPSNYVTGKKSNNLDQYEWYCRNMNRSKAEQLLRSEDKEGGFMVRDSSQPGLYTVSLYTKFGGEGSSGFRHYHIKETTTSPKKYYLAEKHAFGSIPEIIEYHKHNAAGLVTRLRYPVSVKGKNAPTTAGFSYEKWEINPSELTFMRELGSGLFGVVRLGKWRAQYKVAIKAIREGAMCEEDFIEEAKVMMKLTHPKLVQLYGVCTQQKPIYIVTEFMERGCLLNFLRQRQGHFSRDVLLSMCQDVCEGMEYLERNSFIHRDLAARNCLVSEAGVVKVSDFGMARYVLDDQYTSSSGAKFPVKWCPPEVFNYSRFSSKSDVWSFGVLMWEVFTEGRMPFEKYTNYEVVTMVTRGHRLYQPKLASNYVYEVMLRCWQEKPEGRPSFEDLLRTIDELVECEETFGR
In words: Selectivity interaction (ActivX KiNativ screen (kinase selectivity in THP-1 cell lysates)) EUB0000639a TEC. It is filed as subcellular. Conditions: lysate, at 1 µM.

Experiment [5] has as its target Serine/threonine-protein kinase pim-2 (Homo sapiens, UniProt Q9P1W9). Put plainly: Selectivity interaction (ProQinase) EUB0000171b PIM2.
Experiment [6] deals with EML4-ALK (Homo sapiens) (UniProt Q9UM73+Q9HC35). In words: Selectivity interaction (ProQinase) EUB0000171b ALK. It is filed as protein assay. Conditions: at 1 µM.
Chain of EML4-ALK (Homo sapiens) (Q9HC35 whole entry partner): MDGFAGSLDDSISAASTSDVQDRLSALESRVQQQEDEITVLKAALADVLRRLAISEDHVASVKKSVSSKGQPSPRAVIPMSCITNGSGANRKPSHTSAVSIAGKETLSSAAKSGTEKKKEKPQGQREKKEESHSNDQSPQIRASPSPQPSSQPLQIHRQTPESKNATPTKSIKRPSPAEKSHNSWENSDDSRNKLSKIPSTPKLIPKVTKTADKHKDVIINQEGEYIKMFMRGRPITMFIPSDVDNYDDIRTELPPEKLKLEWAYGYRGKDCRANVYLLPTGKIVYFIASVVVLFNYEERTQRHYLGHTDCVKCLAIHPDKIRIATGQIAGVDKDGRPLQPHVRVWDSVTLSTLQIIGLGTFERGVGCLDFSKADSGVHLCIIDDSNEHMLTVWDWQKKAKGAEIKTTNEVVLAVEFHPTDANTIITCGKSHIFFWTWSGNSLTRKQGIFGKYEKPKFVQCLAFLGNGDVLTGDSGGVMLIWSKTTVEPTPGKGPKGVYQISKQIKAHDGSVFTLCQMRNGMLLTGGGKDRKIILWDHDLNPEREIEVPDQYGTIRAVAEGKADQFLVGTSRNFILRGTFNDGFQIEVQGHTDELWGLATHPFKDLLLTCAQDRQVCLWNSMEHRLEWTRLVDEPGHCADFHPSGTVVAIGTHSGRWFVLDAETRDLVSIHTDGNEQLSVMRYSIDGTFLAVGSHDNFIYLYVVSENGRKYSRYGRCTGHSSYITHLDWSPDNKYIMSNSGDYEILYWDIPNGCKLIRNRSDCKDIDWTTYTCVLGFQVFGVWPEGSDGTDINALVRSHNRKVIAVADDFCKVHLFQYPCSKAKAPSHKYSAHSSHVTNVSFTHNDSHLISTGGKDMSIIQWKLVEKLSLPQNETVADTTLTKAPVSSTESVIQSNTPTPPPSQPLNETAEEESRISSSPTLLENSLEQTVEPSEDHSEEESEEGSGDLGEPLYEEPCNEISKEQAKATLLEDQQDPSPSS
Chain of EML4-ALK (Homo sapiens) (Q9UM73 19-1620 limits assumed): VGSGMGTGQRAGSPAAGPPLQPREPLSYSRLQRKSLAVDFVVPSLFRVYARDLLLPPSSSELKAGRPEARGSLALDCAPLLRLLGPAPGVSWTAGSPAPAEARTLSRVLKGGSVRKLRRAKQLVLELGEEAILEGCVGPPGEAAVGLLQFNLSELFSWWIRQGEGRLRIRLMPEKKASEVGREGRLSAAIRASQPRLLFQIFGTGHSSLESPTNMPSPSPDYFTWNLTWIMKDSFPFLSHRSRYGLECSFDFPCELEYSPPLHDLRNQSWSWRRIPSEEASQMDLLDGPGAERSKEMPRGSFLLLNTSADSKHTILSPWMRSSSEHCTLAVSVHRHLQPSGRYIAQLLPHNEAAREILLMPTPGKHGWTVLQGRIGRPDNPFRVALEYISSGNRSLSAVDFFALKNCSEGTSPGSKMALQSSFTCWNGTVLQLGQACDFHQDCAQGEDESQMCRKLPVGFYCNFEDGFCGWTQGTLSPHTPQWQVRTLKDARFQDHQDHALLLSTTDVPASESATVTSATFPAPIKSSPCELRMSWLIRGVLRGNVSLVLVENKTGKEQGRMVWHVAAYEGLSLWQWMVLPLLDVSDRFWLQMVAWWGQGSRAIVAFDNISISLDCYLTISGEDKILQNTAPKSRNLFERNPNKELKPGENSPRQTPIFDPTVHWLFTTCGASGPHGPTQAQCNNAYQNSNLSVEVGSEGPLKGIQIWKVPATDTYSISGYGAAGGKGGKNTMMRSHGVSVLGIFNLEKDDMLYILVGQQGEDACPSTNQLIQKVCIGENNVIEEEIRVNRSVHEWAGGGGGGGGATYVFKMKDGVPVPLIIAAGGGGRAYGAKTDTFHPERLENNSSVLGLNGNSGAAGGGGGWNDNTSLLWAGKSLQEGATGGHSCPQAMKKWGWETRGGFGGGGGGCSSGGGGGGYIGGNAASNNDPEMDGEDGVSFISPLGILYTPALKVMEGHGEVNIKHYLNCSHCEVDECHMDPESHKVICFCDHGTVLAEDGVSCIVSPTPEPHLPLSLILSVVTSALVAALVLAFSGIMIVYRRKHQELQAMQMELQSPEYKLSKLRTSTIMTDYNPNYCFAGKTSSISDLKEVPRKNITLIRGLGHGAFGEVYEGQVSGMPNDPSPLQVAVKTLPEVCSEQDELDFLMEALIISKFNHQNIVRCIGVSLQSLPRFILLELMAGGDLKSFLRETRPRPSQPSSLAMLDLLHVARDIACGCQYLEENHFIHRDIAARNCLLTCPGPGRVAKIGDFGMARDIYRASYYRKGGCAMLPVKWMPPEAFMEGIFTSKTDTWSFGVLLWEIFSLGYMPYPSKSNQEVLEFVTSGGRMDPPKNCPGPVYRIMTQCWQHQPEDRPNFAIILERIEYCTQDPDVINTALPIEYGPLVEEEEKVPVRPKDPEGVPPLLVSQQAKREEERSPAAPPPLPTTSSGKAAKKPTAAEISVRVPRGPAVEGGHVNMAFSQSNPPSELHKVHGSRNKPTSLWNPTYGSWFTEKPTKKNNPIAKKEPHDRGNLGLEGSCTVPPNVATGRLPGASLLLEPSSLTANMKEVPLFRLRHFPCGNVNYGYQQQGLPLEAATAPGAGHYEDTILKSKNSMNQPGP
Experiment [7] deals with T3, Serine/threonine-protein kinase ULK2 (Homo sapiens) (UniProt Q8IYT8).
T3 sequence (whole entry): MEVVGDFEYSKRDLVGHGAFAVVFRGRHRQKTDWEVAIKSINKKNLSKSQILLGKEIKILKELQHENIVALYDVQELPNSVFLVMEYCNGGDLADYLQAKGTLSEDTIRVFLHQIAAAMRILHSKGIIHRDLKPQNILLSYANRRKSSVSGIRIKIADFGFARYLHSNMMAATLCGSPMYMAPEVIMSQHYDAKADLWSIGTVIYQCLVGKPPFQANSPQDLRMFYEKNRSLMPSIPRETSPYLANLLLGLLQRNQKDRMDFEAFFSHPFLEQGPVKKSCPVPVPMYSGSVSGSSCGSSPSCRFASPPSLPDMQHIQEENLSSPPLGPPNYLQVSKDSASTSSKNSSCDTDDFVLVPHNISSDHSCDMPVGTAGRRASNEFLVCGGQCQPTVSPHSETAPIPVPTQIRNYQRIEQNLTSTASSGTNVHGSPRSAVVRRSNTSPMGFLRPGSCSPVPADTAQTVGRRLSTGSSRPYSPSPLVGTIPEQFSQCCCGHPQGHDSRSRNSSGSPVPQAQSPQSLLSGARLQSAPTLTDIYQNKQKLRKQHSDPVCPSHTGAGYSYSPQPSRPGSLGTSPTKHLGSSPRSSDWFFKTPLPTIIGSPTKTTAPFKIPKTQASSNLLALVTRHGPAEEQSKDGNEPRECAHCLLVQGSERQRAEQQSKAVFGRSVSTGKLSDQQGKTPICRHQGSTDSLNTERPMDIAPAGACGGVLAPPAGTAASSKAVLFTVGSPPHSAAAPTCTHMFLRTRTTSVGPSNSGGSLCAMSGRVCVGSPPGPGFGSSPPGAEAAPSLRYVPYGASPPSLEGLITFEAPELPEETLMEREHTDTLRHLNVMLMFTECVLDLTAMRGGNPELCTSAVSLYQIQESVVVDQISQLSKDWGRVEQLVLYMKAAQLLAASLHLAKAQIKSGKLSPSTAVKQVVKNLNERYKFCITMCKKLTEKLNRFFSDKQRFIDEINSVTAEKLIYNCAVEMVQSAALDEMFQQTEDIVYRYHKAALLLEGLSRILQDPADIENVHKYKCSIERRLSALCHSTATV
Put plainly: Selectivity interaction (KinomeScan (DiscoverX)) EUB0000655a ULK2. Conditions: at 10 µM.

Chain of Serine/threonine-protein kinase pim-2 (Q9P1W9 whole entry, looked up): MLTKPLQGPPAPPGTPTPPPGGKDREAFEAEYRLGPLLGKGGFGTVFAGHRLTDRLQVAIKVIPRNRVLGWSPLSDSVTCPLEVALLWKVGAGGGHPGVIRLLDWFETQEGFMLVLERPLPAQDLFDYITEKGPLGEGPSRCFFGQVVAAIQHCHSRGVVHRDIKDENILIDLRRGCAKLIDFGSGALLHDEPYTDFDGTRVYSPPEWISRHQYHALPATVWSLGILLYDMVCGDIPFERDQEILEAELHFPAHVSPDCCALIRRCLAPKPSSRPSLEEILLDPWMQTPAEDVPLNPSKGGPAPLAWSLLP
Chain of Dual specificity testis-specific protein kinase 2 (Homo sapiens) (Q96S53 whole entry, looked up): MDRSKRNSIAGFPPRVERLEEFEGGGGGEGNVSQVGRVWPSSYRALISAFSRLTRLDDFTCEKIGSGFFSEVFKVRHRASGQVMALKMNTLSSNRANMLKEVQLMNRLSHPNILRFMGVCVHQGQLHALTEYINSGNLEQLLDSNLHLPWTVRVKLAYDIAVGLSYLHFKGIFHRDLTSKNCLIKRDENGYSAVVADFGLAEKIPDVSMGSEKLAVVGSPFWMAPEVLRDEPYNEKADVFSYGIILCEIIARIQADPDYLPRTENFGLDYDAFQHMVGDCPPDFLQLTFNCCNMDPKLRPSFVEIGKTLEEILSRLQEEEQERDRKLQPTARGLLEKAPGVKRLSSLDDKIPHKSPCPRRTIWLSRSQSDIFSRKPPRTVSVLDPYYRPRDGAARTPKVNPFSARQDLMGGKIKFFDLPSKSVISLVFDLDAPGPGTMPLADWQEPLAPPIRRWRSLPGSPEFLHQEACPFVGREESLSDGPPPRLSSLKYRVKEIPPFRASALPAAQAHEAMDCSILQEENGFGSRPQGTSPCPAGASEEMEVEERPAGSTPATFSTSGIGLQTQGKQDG

As to `Cn1cc(-n2cnc3c(NCc4nc5cc(Cl)c(Cl)cc5[nH]4)nc(N4CCOCC4)nc32)cn1`, the % of inhibition in experiment [1] is 0.732%.

Compound `COCC(=O)NC/C=C/c1ccc2ncnc(Nc3ccc(Oc4ccc(C)nc4)c(C)c3)c2c1` [CP-724714] came in with a % of control in experiment [2] of 88%.

Compound `CCN(CC)CCCCNc1ncc2cc(-c3cc(OC)cc(OC)c3)c(NC(=O)NC(C)(C)C)nc2n1` yielded a % of control in experiment [3] of 100%.

For `CC[C@@H]1[C@H](F)C(=O)N[C@@H]1COc1nccc2cc(C(N)=O)c(OC)cc12` [ZIMLOVISERTIB], in experiment [4], the % of inhibition is -60.5%.

Regarding `C=CC(=O)Nc1cccc(C(=O)Nc2ccc(Nc3cc(-c4[nH]c(SC)nc4C)ccn3)cc2)c1`, the % of control was determined as 101% in experiment [5] (at 1 µM), 69% in experiment [5] (at 5 µM) and 93% in experiment [6].

Turning to `CN(C)CCOc1ccc(-c2nc(-c3ccncc3)c(-c3ccc4c(c3)CC/C4=N\O)[nH]2)cc1`, the % of control in experiment [7] worked out at 90%.
